According to US5837516A, “Subtilisin variants capable of cleaving substrates containing basic residues” (Genentech, Inc., priority 1995, dated 1998):
Numbering of substitutions follows the chain as printed. Residues, ends and D or L forms follow the SMILES beside them.

How the values were obtained:
[1] = target: T1, subtilisin BPN' variant G166D (Bacillus amyloliquefaciens, UniProt P00782, G273D); experiment: Kinetic analysis, hydrolysis of suc-AAPX-pna substrates; type: biochemical; conditions: Lys P1 versus Phe P1 substrate
T1 construct: correct folding and maturation of subtilisin requires autolytic cleavage of its propeptide; made in house; host or cells: Bacillus subtilis BG2036 (protease-deficient), secreted
From the text: To probe the effects of the G166E and G166D on specificity at the P1 position we used substrates having the form suc-AAPX-pna (SEQ ID NO: 69) where X was either Lys (SEQ ID NO. 58), Arg (SEQ ID NO. 59), Phe (SEQ ID NO. 56), Met (SEQ ID NO. 60) or Gln (SEQ ID NO. 61). Whereas the wild-type enzyme preferred Phe>Met>Lys>Arg>Gln, the G166E preferred Lys^~ Phe>Arg^~ Met>Gln, and G166D preferred Lys>Phe^~ Arg^~ Met>Gln. Thus, both the acidic substitutions at position 166 caused a shift in preference for basic residues at the P1 site, as previously reported (Wells, J. A., Powers, D. B., Bott, R. R., Graycar, T. P.and Estell, D. A. (1987a), Proc. Natl. Acad. Sci. USA 84:1219-1223).
Subtilisins were assayed by measuring the initial rates of hydrolysis of p-nitroanilide tetrapeptide substrates in 0.4 mL 20 mM Tris-Cl pH 8.2, 4% (v/v) dimethyl sulfoxide at (25±0.2)° C. as described previously (Estell, D. A., Graycar, T. P., Miller, J. V., Powers, D. B., Burnier, J. P., Ng, P. G. and Wells, J. A. (1986)Science 233:659-663). Enzyme concentrations (E)0 were determined spectrophotometrically using E280 nm 0.1%=1.17 (Matsubara, H.; Kasper, C B.; Brown, D. M.; and Smith, E. L. (1965)J. Biol. Chem.,240:1125-1130.), and were typically 5-50 nM in reactions. Initial rates were determined for nine to twelve different substrate concentrations over the range of 0.001-2.0 mM. […]

[2] = target: T2, subtilisin BPN' variant N62D/Y104D/G166D (SEQ ID NO: 75) (Bacillus amyloliquefaciens, UniProt P00782, G273D/N169D/Y211D); experiment: Kinetic analysis, hydrolysis of succinyl-tetrapeptide-pNA substrates; type: biochemical; conditions: relative to succinyl-RAKR-pNA
T2 construct: the mature enzyme +1 to +275; made in house; host or cells: Bacillus subtilis BG2036 (protease-deficient), secreted
T2 sequence (P00782 108-382 N169D/Y211D/G273D): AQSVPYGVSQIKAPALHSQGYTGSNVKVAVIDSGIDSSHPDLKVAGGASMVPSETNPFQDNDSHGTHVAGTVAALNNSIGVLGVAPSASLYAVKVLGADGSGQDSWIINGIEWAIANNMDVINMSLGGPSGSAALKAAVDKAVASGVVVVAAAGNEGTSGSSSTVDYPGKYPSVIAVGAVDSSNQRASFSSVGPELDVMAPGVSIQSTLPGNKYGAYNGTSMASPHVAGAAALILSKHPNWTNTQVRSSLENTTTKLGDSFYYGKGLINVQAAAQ
Protocol: The mature N62D/Y104D/G166D variant was purified and analyzed for its ability to hydrolyze several tetrapeptide-pNA substrates.
Kinetic analysis of WT, N62D/G166D, and N62D/Y104D/G166D subtilisin BPN'
Subtilisins were assayed by measuring the initial rates of hydrolysis of p-nitroanilide tetrapeptide substrates in 0.4 mL 20 mM Tris-Cl pH 8.2, 4% (v/v) dimethyl sulfoxide at (25±0.2)° C. as described previously (Estell, D. A., Graycar, T. P., Miller, J. V., Powers, D. B., Burnier, J. P., Ng, P. G. and Wells, J. A. (1986)Science 233:659-663). Enzyme concentrations (E)0 were determined spectrophotometrically using E280 nm 0.1%=1.17 (Matsubara, H.; Kasper, C B.; Brown, D. M.; and Smith, E. L. (1965)J. Biol. Chem.,240:1125-1130.), and were typically 5-50 nM in reactions. Initial rates were determined for nine to twelve different substrate concentrations over the range of 0.001-2.0 mM. Plots of initial rates (v) versus substrate concentration (S) were fitted to the Michaelis-Menton equation, [formula] to determine the kinetic constants kcat and Km (Fersht, A. in "Enzyme Structure and Mechanism", Second edition, Freeman and Co., N.Y.) using the program Kaleidagraph (Synergy Software, Reading, Pa.).

subtilisin = target: T3, subtilisin (Bacillus amyloliquefaciens, UniProt P00782); conditions: Estell et al. (1986) Science 233:659-663; cited from earlier work
T3 sequence (P00782 108-382): T2 sequence (P00782 108-382 N169D/Y211D/G273D) with D62N, D104Y, D166G

T1 sequence (P00782 108-382 G273D): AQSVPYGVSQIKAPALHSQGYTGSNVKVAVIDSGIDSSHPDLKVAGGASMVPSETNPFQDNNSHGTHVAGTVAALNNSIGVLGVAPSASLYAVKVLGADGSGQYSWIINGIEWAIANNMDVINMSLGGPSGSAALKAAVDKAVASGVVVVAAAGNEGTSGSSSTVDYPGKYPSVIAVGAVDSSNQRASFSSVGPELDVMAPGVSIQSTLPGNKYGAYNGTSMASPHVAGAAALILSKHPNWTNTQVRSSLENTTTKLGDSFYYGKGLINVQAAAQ

Compound: C[C@H](NC(=O)CCC(=O)O)C(=O)N[C@@H](C)C(=O)N1CCC[C@H]1C(=O)N[C@@H](CCCCN)C(=O)Nc1ccc([N+](=O)[O-])cc1 [Lys P1 substrate] (HELM PEPTIDE1{[O=C(O)CCC(=O)[*:2]].A.A.P.K.[O=[N+]([O-])c1ccc(N[*:1])cc1]}$$$$V2.0)
- ratio of catalytic efficiencies, times faster cleaved than the Phe P1 substrate [1]: about 3 times

Compound: C[C@H](NC(=O)CCC(=O)O)C(=O)N[C@@H](C)C(=O)N1CCC[C@H]1C(=O)N[C@@H](Cc1ccccc1)C(=O)Nc1ccc([N+](=O)[O-])cc1 [succinyl-AAPF-pNA, N-succinyl-alanine-alanine-proline-phenylalanyl-p-nitroanalide] (HELM PEPTIDE1{[O=C(O)CCC(=O)[*:2]].A.A.P.F.[O=[N+]([O-])c1ccc(N[*:1])cc1]}$$$$V2.0)
- catalytic efficiency (kcat/Km), fold less efficiently hydrolyzed than succinyl-RAKR-pNA [2]: 6×10^4 fold
- kcat /Km ratio (subtilisin): 300000 M⁻¹ s⁻¹
